{"source": "patent US20040133938A1", "about": "“Use of lipoic acid in plant culture media” (priority 2002, published 2004)", "system": "MicroTom cotyledon explants", "test": "MicroTom Agrobacterium transformation: shoot regeneration, transformation efficiency, escapes", "format": "cell-based, Lycopersicon esculentum", "details": "for % of explants producing shoots (>1 cm in length): selection medium; for % of shoots that were escapes (did not root on selection medium): kanamycin selection", "procedure": "This example describes the use of lipoic acid in an Agrobacterium-based tomato transformation process. MicroTom (a cultivar of tomato species: Lycopersicon esculentum) seeds from Tomato Growers (Ball Seed Co., West Chicago, Ill. USA) were surface-sterilized by first soaking for 10 min in sterile deionized water, removing the water, and then adding enough 70% ethanol to immerse the seeds for 1 min while stirring vigorously and then aspirating the ethanol. The seeds were rinsed 2× with sterile deionized water and then soaked in 25% Chlorox with 1-2 drops of Tween 20 for 10 min while stirring frequently. The seeds were rinsed 3× with sterile deionized water. The seeds were germinated in phytatrays containing Davis Germination medium (4.3 g/L MS salts, 2 ml/L Gamborg's B-5 500× salts, 20 g/L sucrose and 10 g/L agar) (approximately 120 seeds/container), and the phytatrays were wrapped with aluminum foil. The phytatray cultures were maintained at 28° C. under the dark for 5 days. After 5 days, the phytatray cultures were unwrapped and grown at 24° C. under a 16 h photoperiod for about 44 h.\nAgrobacterium containing the desired transformation vector with a selectable marker (nptII for kanamycin selection as shown in FIG. 1) was streaked on a fresh LBssck plate (LB, 200 mL; spectinomycin (50 mg/mL stock), 200 μL; streptomycin (50 mg/mL stock), 200 μL; kanamycin (50 mg/mL stock), 200 μL; chloramphenicol (CAP, 25 mg/mL stock), 200 μL) from a frozen glycerol stock, and grown at about 28° C. for 3-4 days. One day before inoculation, a loopful of the bacterium cells from the freshly streaked plate was inoculated into 2 mL of LB+(LB, 200 mL; spectinomycin or streptomycin (50 mg/mL stock), 400 μL; kanamycin (50 mg/mL stock), 200 μL; chloramphenicol (CAP, 25 mg/mL stock), 200 μL) without acetosyringone, and grown at about 28° C. on a rotator at the speed between medium to high overnight. Then, 0.2 mL of the overnight bacterium culture was inoculated into 2 mL of LB+0.2 mM acetosyringone, and grown at about 28° C. on a rotator at the speed between medium to high for 4 hours.\nFour hours after the sub-culture, the bacterium growth phase was measured using the spectrophotometer. The final O.D.660 of the bacterium culture was between about 0.9 and 1.4. The bacterium culture was diluted by adding the bacterium culture to TXD medium in a sterile tube based on the volume to get the working O.D.660=0.1.\nCotyledon explants were isolated from seedlings 7 days after sowing seeds on Davis Germination medium. Cotyledon explants were prepared by bathing them in 6 mL of TXD liquid medium (4.3 g/L MS salts, 2 mL/L Gamborg's B-5 500× salts, 4 mg/L pCPA (p-chlorophenoxyactic acid), 0.005 mg/L kinetin, and 30 g/L sucrose) to prevent desiccation and trimming them at both ends using a #15 feather blade. Immediately after the trimming, the cotyledon explants were gently placed on “feeder plates” containing UC2PC medium (2.2 g/L MS salts, 2.2 mL/L, Gamborg's B-5 500× salts, 0.2 mg/L 2,4-D, 4 mg/L pCPA, 0.1 mg/L kinetin, 30 g/L sucrose, 0.2 g/L potassium phosphate, 10 g/L agar, 8 mL/L acetosyringone (4.91 mg/mL), and 4 mL galacturonic acid (53.05 mg/mL)). The “feeder plates” are made by overlaying 2 mL of tobacco suspension cells and a sterile Whatman filter on the plates containing UC2PC medium. The cotyledon explants were gently poked with a sharp forceps (ASIM5311, Stainless French, made in Switzerland). Usually six to ten pokes were made per explant depending the size of cotyledons. Right after poking, the cotyledons were inoculated with Agrobacterium containing pMON15715 (FIG. 1) by adding 3 mL of the adjusted Agrobacterium solution on top of the cotyledons. The plates were incubated for 10 min at room temperature, and the Agrobacterium solution was aspirated with a sterile pipette. The cotyledons were then co-cultured for 2 days at 23-24° C. under a 16-h photoperiod. […]"}
{"smiles": "O=C(O)CCCCC1CCSS1", "note": "(stereo not drawn) [lipoic acid, 1,2-dithiolane-3-pentanoic acid]", "values": [{"measurement": "% of explants producing shoots (>1 cm in length)", "setting": "5 μM lipoic acid, 45 explants", "value": 68.9, "unit": "%"}, {"measurement": "% of resp. explant producing transgenic plants", "setting": "5 μM lipoic acid, MicroTom", "value": 78.6, "unit": "%"}, {"measurement": "% of transgenic plants/shoot", "setting": "5 μM lipoic acid, MicroTom", "value": 43.9, "unit": "%"}, {"measurement": "Efficiency (stable transformation efficiency, percentage of transgenic plants produced per explant)", "setting": "5 μM lipoic acid, MicroTom", "value": 155.1, "unit": "%"}, {"measurement": "No. of total shoots produced/explant", "setting": "5 μM lipoic acid, MicroTom", "value": 3.53}, {"measurement": "No. of total shoots produced/resp. explant", "setting": "5 μM lipoic acid, MicroTom", "value": 4.93}, {"measurement": "No. of transgenic plants produced/resp. explant", "setting": "5 μM lipoic acid, MicroTom", "value": 2.25}, {"measurement": "TE (percentage of transgenic events produced per explant)", "setting": "5 μM lipoic acid, MicroTom", "value": 78.3, "unit": "%"}, {"measurement": "% of shoots that were escapes (did not root on selection medium)", "setting": "5 μM lipoic acid", "value": 54.6, "unit": "%"}, {"measurement": "% of explants producing shoots (>1 cm in length)", "setting": "10 μM lipoic acid, 46 explants", "value": 67.4, "unit": "%"}, {"measurement": "% of resp. explant producing transgenic plants", "setting": "10 μM lipoic acid, MicroTom", "value": 74.2, "unit": "%"}, {"measurement": "% of transgenic plants/shoot", "setting": "10 μM lipoic acid, MicroTom", "value": 42.9, "unit": "%"}, {"measurement": "Efficiency (stable transformation efficiency, percentage of transgenic plants produced per explant)", "setting": "10 μM lipoic acid, MicroTom", "value": 178.7, "unit": "%"}, {"measurement": "No. of total shoots produced/explant", "setting": "10 μM lipoic acid, MicroTom", "value": 4.17}, {"measurement": "No. of total shoots produced/resp. explant", "setting": "10 μM lipoic acid, MicroTom", "value": 6.19}, {"measurement": "No. of transgenic plants produced/resp. explant", "setting": "10 μM lipoic acid, MicroTom", "value": 2.65}, {"measurement": "TE (percentage of transgenic events produced per explant)", "setting": "10 μM lipoic acid, MicroTom", "value": 94.1, "unit": "%"}, {"measurement": "% of shoots that were escapes (did not root on selection medium)", "setting": "10 μM lipoic acid", "value": 58.3, "unit": "%"}, {"measurement": "% of explants producing shoots (>1 cm in length)", "setting": "50 μM lipoic acid, 49 explants", "value": 61.2, "unit": "%"}, {"measurement": "% of resp. explant producing transgenic plants", "setting": "50 μM lipoic acid, MicroTom", "value": 67.9, "unit": "%"}, {"measurement": "% of transgenic plants/shoot", "setting": "50 μM lipoic acid, MicroTom", "value": 48.0, "unit": "%"}, {"measurement": "Efficiency (stable transformation efficiency, percentage of transgenic plants produced per explant)", "setting": "50 μM lipoic acid, MicroTom", "value": 144.1, "unit": "%"}, {"measurement": "No. of total shoots produced/explant", "setting": "50 μM lipoic acid, MicroTom", "value": 3.00}, {"measurement": "No. of total shoots produced/resp. explant", "setting": "50 μM lipoic acid, MicroTom", "value": 4.83}, {"measurement": "No. of transgenic plants produced/resp. explant", "setting": "50 μM lipoic acid, MicroTom", "value": 2.35}, {"measurement": "TE (percentage of transgenic events produced per explant)", "setting": "50 μM lipoic acid, MicroTom", "value": 76.4, "unit": "%"}, {"measurement": "% of shoots that were escapes (did not root on selection medium)", "setting": "50 μM lipoic acid", "value": 55.4, "unit": "%"}, {"measurement": "% of explants producing shoots (>1 cm in length)", "setting": "100 μM lipoic acid, 43 explants", "value": 25.6, "unit": "%"}, {"measurement": "% of resp. explant producing transgenic plants", "setting": "100 μM lipoic acid, MicroTom", "value": 93.8, "unit": "%"}, {"measurement": "% of transgenic plants/shoot", "setting": "100 μM lipoic acid, MicroTom", "value": 50.6, "unit": "%"}, {"measurement": "Efficiency (stable transformation efficiency, percentage of transgenic plants produced per explant)", "setting": "100 μM lipoic acid, MicroTom", "value": 112.1, "unit": "%"}, {"measurement": "No. of total shoots produced/explant", "setting": "100 μM lipoic acid, MicroTom", "value": 2.21}, {"measurement": "No. of total shoots produced/resp. explant", "setting": "100 μM lipoic acid, MicroTom", "value": 8.64}, {"measurement": "No. of transgenic plants produced/resp. explant", "setting": "100 μM lipoic acid, MicroTom", "value": 4.38}, {"measurement": "TE (percentage of transgenic events produced per explant)", "setting": "100 μM lipoic acid, MicroTom", "value": 49.7, "unit": "%"}, {"measurement": "% of shoots that were escapes (did not root on selection medium)", "setting": "100 μM lipoic acid", "value": 57.1, "unit": "%"}, {"measurement": "effect on total transgenic and non-transgenic shoot induction", "setting": "lipoic acid from 5 μM to 50 μM", "value": "no inhibition effect"}, {"measurement": "increase of the stable transformation efficiency", "setting": "summary, MicroTom, from 40%", "value": 6.5, "unit": "fold"}, {"measurement": "stable transformation efficiency", "setting": "summary, MicroTom, with lipoic acid", "value": "up to 260%"}]}
